For orientation: IC50 means the point on the concentration scale where inhibition reaches its midpoint. Broadly, the EC50 is the midpoint of the concentration-response curve.

Test [1] has as its target T1, human full length PKCE enzyme (Homo sapiens, UniProt Q02156).
T1 construct: human full length PKCE enzyme purchased from InVitrogen; purchased InVitrogen
T1 sequence (Q02156 1-737): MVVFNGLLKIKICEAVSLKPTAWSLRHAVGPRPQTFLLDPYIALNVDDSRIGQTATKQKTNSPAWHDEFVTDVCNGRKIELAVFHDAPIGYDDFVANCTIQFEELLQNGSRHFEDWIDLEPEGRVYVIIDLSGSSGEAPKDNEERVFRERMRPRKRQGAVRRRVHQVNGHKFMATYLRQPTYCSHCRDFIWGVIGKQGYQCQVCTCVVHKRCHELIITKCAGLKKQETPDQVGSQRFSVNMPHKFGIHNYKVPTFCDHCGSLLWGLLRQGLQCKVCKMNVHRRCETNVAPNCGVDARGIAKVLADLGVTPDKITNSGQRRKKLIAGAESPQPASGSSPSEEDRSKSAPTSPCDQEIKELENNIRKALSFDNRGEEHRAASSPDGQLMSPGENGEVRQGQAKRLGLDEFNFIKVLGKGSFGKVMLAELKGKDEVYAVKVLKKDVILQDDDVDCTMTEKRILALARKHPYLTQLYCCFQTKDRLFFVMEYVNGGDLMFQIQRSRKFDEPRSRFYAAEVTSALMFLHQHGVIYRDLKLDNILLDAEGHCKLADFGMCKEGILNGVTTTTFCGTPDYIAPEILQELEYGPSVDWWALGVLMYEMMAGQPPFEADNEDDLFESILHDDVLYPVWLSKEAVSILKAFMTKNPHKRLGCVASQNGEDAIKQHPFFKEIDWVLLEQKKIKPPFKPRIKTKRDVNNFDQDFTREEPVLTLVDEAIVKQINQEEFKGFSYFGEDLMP
The test is described as follows: In vitro PKCE assay. Format: biochemical. Particulars: 10 nM enzyme, 40 uM peptide substrate, 20 uM ATP, KinaseGlo Plus readout; read-out: PKCε IC50.

Another test concerns the target Pim1 kinase (Homo sapiens, UniProt P11309). Kind of test: Pim1 ATP depletion assay.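 Note: Luciferase-luciferin luminescence readout of residual ATP after PIM1 transfers phosphate to a peptide substrate, 40 µM ATP added, reaction run to roughly half ATP consumption.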 Format: biochemical. Particulars: Pim1 ATP depletion assay.
For the next test, the target named is Pim2 kinase (Homo sapiens, UniProt Q9P1W9). Kind of test: Pim2 ATP depletion assay.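 Note: Luciferase-based luminescent readout of ATP remaining after PIM2 phosphorylates a BAD peptide, final 5 nM enzyme, 4 µM ATP, 10 µM peptide, 2.5% DMSO, run to roughly half ATP consumption.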 Format: biochemical.
Pim2 kinase, sequence (Q9P1W9 whole entry): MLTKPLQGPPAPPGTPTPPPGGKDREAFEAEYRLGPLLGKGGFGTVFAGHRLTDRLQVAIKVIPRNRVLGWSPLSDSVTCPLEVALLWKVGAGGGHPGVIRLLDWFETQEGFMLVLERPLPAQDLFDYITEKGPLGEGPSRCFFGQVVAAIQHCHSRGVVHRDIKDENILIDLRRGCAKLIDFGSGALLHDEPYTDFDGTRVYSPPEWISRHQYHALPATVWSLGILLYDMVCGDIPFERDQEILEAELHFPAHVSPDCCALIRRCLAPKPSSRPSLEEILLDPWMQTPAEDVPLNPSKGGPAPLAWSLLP
The target of a further test is Pim3 kinase (Homo sapiens, UniProt Q86V86). The test is described as follows: Pim3 ATP depletion assay. Format: biochemical.
The test system of a further test is PC3 cells. The test is described as follows: Cell proliferation assay (CellTiter-Glo), PC3. Format: cell-based. Particulars: Homo sapiens, PC-3. The protocol:
HEL 92.1.7 cells (ATTC No. TIB-180, an erythroleukemia line derived from malignant peripheral blood), MV4-11 cells (ATCC No. CRL-9591, a human acute monocytic leukemia line) and PC3 cells (ATCC No. CRL-1435, a human prostatic adenocarcinoma line) were cultured in RPMI1640 supplemented with 10% FBS, sodium pyruvate and antibiotics. Cells were plated in the same medium at a density of 1000 cells per well into 96 well tissue culture plates, with outside wells vacant, on the day of assay.
Test compounds supplied in DMSO were diluted into DMSO at 500 times the desired final concentrations before dilution into culture media to 2 times final concentrations. Equal volumes of 2× compounds were added to the cells in 96 well plates and incubated at 37° C. for 3 days.
After 3 days plates were equilibrated to room temperature and equal volume of CellTiter-Glow Reagent (Promega) was added to the culture wells. The plates were agitated briefly and luminescent signal was measured with luminometer. The percent inhibition of the signal seen in cells treated with DMSO alone vs. cells treated with control compound was calculated and used to determine EC50 values (i.e., the concentration of a test compound that is required to obtain 50% of the maximum effect in the cells) for tested compounds, as shown in Example 763.
(In ATP-based viability assays light output follows the ATP content of the culture.)

The target in a further test is KDR kinase (Homo sapiens, UniProt P35968). Kind of test: KDR AlphaScreen assay. Particulars: KDR IC50 (μM). A general note: In Alpha technology, singlet oxygen from a donor bead excites a nearby acceptor bead.
KDR kinase, sequence (P35968 20-1356): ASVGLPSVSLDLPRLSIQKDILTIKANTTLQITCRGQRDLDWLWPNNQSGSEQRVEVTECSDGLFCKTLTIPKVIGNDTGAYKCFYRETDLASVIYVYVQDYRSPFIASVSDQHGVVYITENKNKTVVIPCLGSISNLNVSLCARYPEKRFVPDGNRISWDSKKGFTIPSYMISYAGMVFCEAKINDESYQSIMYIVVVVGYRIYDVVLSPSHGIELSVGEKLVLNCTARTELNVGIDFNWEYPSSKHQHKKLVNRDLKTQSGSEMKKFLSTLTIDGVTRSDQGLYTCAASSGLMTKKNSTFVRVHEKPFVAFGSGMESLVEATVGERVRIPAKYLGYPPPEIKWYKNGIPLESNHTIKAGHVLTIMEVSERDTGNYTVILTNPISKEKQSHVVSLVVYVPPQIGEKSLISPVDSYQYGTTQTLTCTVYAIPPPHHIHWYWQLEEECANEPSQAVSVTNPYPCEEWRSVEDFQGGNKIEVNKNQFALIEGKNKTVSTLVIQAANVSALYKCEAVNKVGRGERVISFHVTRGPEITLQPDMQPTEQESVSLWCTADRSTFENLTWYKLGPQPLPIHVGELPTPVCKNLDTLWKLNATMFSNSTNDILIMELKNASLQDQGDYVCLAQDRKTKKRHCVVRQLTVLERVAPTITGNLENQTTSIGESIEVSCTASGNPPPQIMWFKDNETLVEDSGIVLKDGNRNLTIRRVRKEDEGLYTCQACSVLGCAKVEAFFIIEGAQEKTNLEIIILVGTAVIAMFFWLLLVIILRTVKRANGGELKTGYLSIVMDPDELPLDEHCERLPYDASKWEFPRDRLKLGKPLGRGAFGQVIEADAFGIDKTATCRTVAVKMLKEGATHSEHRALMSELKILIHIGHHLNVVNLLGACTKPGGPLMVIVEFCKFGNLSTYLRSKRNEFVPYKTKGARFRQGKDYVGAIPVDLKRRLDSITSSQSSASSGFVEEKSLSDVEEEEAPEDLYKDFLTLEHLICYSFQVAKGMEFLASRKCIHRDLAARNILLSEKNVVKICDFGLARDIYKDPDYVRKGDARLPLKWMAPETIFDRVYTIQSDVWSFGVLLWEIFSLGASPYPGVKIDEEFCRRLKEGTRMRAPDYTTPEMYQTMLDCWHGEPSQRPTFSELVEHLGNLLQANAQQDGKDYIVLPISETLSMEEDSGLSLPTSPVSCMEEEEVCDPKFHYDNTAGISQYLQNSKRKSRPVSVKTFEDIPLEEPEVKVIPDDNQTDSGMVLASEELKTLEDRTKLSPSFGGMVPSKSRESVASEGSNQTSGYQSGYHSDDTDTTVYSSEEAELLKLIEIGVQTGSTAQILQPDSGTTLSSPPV
The subject of a further test is HEL 92.1.7 cells. Kind of test: Cell proliferation assay (CellTiter-Glo), HEL 92.1.7. Format: cell-based. Particulars: Homo sapiens, read-out: HEL 92.1.7 EC50. In a few lines:
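Cells in RPMI1640 with 10% FBS were seeded at 1000 cells/well and exposed to compound dilutions from DMSO stocks for 3 days at 37 °C. Viability was read by CellTiter-Glo luminescence. EC50 was derived from percent inhibition relative to DMSO-only and control-compound wells.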

Structures are written as SMILES. Like-named read-outs stand apart in the source and are kept apart here. Some results are limits rather than exact numbers.

Pim1 kinase, sequence (P11309 whole entry): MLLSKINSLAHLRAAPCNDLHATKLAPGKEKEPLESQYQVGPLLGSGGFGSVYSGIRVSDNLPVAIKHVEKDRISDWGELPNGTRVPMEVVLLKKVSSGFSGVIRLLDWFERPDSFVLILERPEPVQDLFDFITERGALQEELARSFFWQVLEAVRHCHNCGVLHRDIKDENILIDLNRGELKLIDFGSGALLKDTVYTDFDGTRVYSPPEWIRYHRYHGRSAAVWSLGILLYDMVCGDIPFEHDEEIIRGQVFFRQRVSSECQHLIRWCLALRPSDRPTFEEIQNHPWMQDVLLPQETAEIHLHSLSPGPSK

For `Nc1nc(N)c(C(=O)Nc2ccncc2N2CCCCC2)nc1Cl` [Example 120, 3,5-diamino-6-chloro-N-(3-piperidin-1-ylpyridin-4-yl)-pyrazine-2-carboxamide], the half-maximal inhibitory concentration (IC50) in test [1] is 1 to 10 µM; on Pim1 kinase (read-out: IC50 (μM) PIM1), < 1 µM; at Pim2 kinase (read-out: IC50 (μM) PIM2) it was 1 to 10 µM; on Pim3 kinase (read-out: IC50 (μM) PIM3) it was < 1 µM. The compound further registered a half-maximal effective concentration (EC50) in the test on PC3 cells of 1 to 5 µM.
`Nc1nccnc1C(=O)Nc1cc(-c2ccn[nH]2)ccc1N1CCC(N)CC1` [Example 207, 3-amino-N-[2-(4-aminopiperidin-1-yl)-5-(1H-pyrazol-5-yl)phenyl]pyrazine-2-carbox-amide]: the half-inhibitory concentration (IC50) at Pim1 kinase (read-out: IC50 (μM) PIM1) was < 1 µM; on Pim2 kinase (read-out: IC50 (μM) PIM2) it was 10 to 25 µM; at Pim3 kinase (read-out: IC50 (μM) PIM3), < 1 µM. The compound also displayed a half-maximal effective concentration (EC50) with PC3 cells of 5 to 10 µM.
Consider `Nc1nccnc1C(=O)Nc1cc(F)ccc1N1CCC(N)CC1` [Example 208, 3-amino-N-[2-(4-aminopiperidin-1-yl)-5-fluorophenyl]pyrazine-2-carboxamide], for which the IC50 was < 1 µM on Pim1 kinase (read-out: IC50 (μM) PIM1), 1 to 10 µM on Pim2 kinase (read-out: IC50 (μM) PIM2) and < 1 µM on Pim3 kinase (read-out: IC50 (μM) PIM3). Besides, the EC50 with PC3 cells is < 1 µM.
As to `Nc1nccnc1C(=O)Nc1c(F)cccc1N1CCC(N)CC1` [Example 209, 3-amino-N-[2-(4-aminopiperidin-1-yl)-6-fluorophenyl]pyrazine-2-carboxamide], the figures for the half-maximal inhibitory concentration (IC50) at Pim1 kinase (read-out: IC50 (μM) PIM1), on Pim2 kinase (read-out: IC50 (μM) PIM2) and on Pim3 kinase (read-out: IC50 (μM) PIM3) were 10 to 25 µM, > 25 µM and > 25 µM, respectively. In the test with PC3 cells, this compound gave a concentration giving a half-maximal response (EC50) of 1 to 5 µM.
Take `Nc1nccnc1C(=O)Nc1ccc(F)cc1N1CCC(N)CC1` [Example 210, 3-amino-N-[2-(4-aminopiperidin-1-yl)-4-fluorophenyl]pyrazine-2-carboxamide]: the IC50 on Pim1 kinase (read-out: IC50 (μM) PIM1) was < 1 µM; at Pim2 kinase (read-out: IC50 (μM) PIM2), 1 to 10 µM; on Pim3 kinase (read-out: IC50 (μM) PIM3) it was < 1 µM. In addition, in the test with PC3 cells, the EC50 was < 1 µM.
Take `COc1ccc(F)c(-c2cnc(N)c(C(=O)Nc3ccccc3N3CCC(N)CC3)n2)c1` [Example 393, 3-amino-6-(2-fluoro-5-methoxy-phenyl)-pyrazine-2-carboxylic acid [2-(4-amino-piperidin-1-yl)-phenyl]-amide]: the concentration for half-maximal inhibition (IC50) at Pim1 kinase (read-out: IC50 (μM) PIM1), at Pim2 kinase (read-out: IC50 (μM) PIM2) and at Pim3 kinase (read-out: IC50 (μM) PIM3) was < 1 µM in each case. Further, the half-maximal effective concentration (EC50) in the test with PC3 cells was 1 to 5 µM.
With `COc1cc(-c2cnc(N)c(C(=O)Nc3ccccc3N3CCNCC3)n2)cc(OC)c1OC` [Example 395, 3-amino-6-(3,4,5-trimethoxy-phenyl)-pyrazine-2-carboxylic acid (2-piperazin-1-yl-phenyl)-amide], the 50% inhibitory concentration (IC50) at Pim1 kinase (read-out: IC50 (μM) PIM1) is < 1 µM; at Pim2 kinase (read-out: IC50 (μM) PIM2), > 25 µM; at Pim3 kinase (read-out: IC50 (μM) PIM3) it was 1 to 10 µM. In the test on PC3 cells, the EC50 was in the range of 1 to 5 µM.
With `COc1ccc(F)c(-c2cnc(N)c(C(=O)Nc3ccccc3N3CCNCC3)n2)c1` [Example 396, 3-amino-6-(2-fluoro-5-methoxy-phenyl)-pyrazine-2-carboxylic acid (2-piperazin-1-yl-phenyl)-amide], the half-inhibitory concentration (IC50) on Pim1 kinase (read-out: IC50 (μM) PIM1) is < 1 µM; at Pim2 kinase (read-out: IC50 (μM) PIM2) it was 1 to 10 µM; at Pim3 kinase (read-out: IC50 (μM) PIM3), < 1 µM. The EC50 in the test on PC3 cells was in the range of 1 to 5 µM.
Take `Nc1ncc(-c2ccccc2)nc1C(=O)Nc1ccccc1N1CCC(N)CC1` [Example 397, 3-amino-6-phenyl-pyrazine-2-carboxylic acid [2-(4-amino-piperidin-1-yl)-phenyl]-amide]: the IC50 at Pim1 kinase (read-out: IC50 (μM) PIM1) and at Pim3 kinase (read-out: IC50 (μM) PIM3) was < 1 µM each time. For the same compound, the EC50 in the test with PC3 cells was < 1 µM.
Turning to `Nc1ncc(-c2ccccc2)nc1C(=O)Nc1[nH]c(=O)ncc1N1CCCCC1` [Example 590, 3-amino-6-phenyl-pyrazine-2-carboxylic acid (2-oxo-5-piperidin-1-yl-2,3-dihydro-pyrimidin-4-yl)-amide], the half-maximal inhibitory concentration (IC50) was 1 to 10 µM in test [1]; < 1 µM on Pim1 kinase (read-out: PIM1 IC50); < 1 µM on KDR kinase; < 1 µM at Pim2 kinase (read-out: PIM2 IC50); < 1 µM on Pim3 kinase (read-out: PIM3 IC50). Further, the EC50 in the test with HEL 92.1.7 cells was 1 to 5 µM.

Source of the values: patent publication US20140249135A1, “PIM KINASE INHIBITORS AND METHODS OF THEIR USE” (NOVARTIS AG, priority 2007, published 2014).
